Assays:
Test in all cases: cells
DOK = type: functional, cell-based; conditions: Homo sapiens;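 note: cell viability assay read-out, values reflect inhibition of cell growth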
Description: SANGER: Inhibition of human DOK cell growth in a cell viability assay.

EW-16 = type: functional, cell-based, Homo sapiens; conditions: Homo sapiens, EW-16;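 note: growth inhibition of human EW-16 cells, read out as cell viability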
Description: SANGER: Inhibition of human EW-16 cell growth in a cell viability assay.

KLE = type: functional, cell-based; conditions: Homo sapiens;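 note: growth inhibition of human KLE cells, read out with a cell viability assay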
Description: SANGER: Inhibition of human KLE cell growth in a cell viability assay.

D-247MG = type: functional, cell-based; conditions: Homo sapiens
Description: SANGER: Inhibition of human D-247MG cell growth in a cell viability assay.

EW-18 = type: functional, cell-based, Homo sapiens; conditions: Homo sapiens, EW-18; read-out: IC50;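 note: growth inhibition of EW-18 cells, read out by a cell viability assay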
Description: SANGER: Inhibition of human EW-18 cell growth in a cell viability assay.

SW872 = type: functional, cell-based, Homo sapiens; conditions: Homo sapiens, SW872;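 note: growth inhibition of SW872 cells, read out by a viability assay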
Description: SANGER: Inhibition of human SW872 cell growth in a cell viability assay.

NCI-H1770 = type: functional, cell-based, Homo sapiens; conditions: Homo sapiens, NCI-H1770;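 note: growth inhibition of NCI-H1770 cells determined with a viability readout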
Description: SANGER: Inhibition of human NCI-H1770 cell growth in a cell viability assay.

A388 = type: functional, cell-based; conditions: Homo sapiens;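 note: growth inhibition of human A388 cells, read out with a cell viability assay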
Description: SANGER: Inhibition of human A388 cell growth in a cell viability assay.

LS-513 = type: functional, cell-based, Homo sapiens; conditions: Homo sapiens, LS-513
Description: SANGER: Inhibition of human LS-513 cell growth in a cell viability assay.

ACN = type: functional, cell-based, Homo sapiens; conditions: Homo sapiens, ACN;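 note: growth inhibition of the human ACN cell line, read out via cell viability testing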
Description: SANGER: Inhibition of human ACN cell growth in a cell viability assay.

U-118-MG = type: functional, cell-based; conditions: Homo sapiens
Description: SANGER: Inhibition of human U-118-MG cell growth in a cell viability assay.

no-10 = type: functional, cell-based, Homo sapiens; conditions: Homo sapiens;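 note: growth inhibition of no-10 cells, read out with a cell viability assay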
Description: SANGER: Inhibition of human no-10 cell growth in a cell viability assay.

NCI-H1623 = type: functional, cell-based; conditions: Homo sapiens;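 note: cell viability assay used as the read-out for growth inhibition of NCI-H1623 cells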
Description: SANGER: Inhibition of human NCI-H1623 cell growth in a cell viability assay.

BV-173 = type: functional, cell-based, Homo sapiens; conditions: Homo sapiens, BV-173
Description: SANGER: Inhibition of human BV-173 cell growth in a cell viability assay.

DOHH-2 = type: functional, cell-based, Homo sapiens; conditions: Homo sapiens, DOHH-2;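 note: growth inhibition of human DOHH-2 cells, read out with a cell viability assay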
Description: SANGER: Inhibition of human DOHH-2 cell growth in a cell viability assay.

D-502MG = type: functional, cell-based, Homo sapiens; conditions: Homo sapiens, D-502MG
Description: SANGER: Inhibition of human D-502MG cell growth in a cell viability assay.

SW982 = type: functional, cell-based; conditions: Homo sapiens;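 note: growth inhibition of SW982 cells, read out with a cell viability assay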
Description: SANGER: Inhibition of human SW982 cell growth in a cell viability assay.

KGN = type: functional, cell-based, Homo sapiens; conditions: Homo sapiens, KGN;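 note: growth inhibition of KGN cells, read out with a cell viability assay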
Description: SANGER: Inhibition of human KGN cell growth in a cell viability assay.

QIMR-WIL = type: functional, cell-based, Homo sapiens; conditions: Homo sapiens, QIMR-WIL;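 note: growth inhibition of QIMR-WIL cells, read out with a cell viability assay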
Description: SANGER: Inhibition of human QIMR-WIL cell growth in a cell viability assay.

NCI-H69 = type: functional, cell-based, Homo sapiens; conditions: Homo sapiens, NCI-H69;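 note: growth inhibition of the cell line, read out with a cell viability assay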
Description: SANGER: Inhibition of human NCI-H69 cell growth in a cell viability assay.

KINGS-1 = type: functional, cell-based, Homo sapiens; conditions: Homo sapiens, KINGS-1;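 note: cell viability assay measuring suppression of KINGS-1 cell growth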
Description: SANGER: Inhibition of human KINGS-1 cell growth in a cell viability assay.

TE-8 = type: functional, cell-based, Homo sapiens; conditions: Homo sapiens, TE-8;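 note: growth inhibition of TE-8 cells, measured with a cell viability readout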
Description: SANGER: Inhibition of human TE-8 cell growth in a cell viability assay.

TE-9 = type: functional, cell-based, Homo sapiens; conditions: Homo sapiens, TE-9;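 note: cell growth inhibition, measured with a cell viability readout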
Description: SANGER: Inhibition of human TE-9 cell growth in a cell viability assay.

IST-MEL1 = type: functional, cell-based, Homo sapiens; conditions: Homo sapiens, IST-MEL1;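 note: growth inhibition of the cell line, read out with a cell viability assay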
Description: SANGER: Inhibition of human IST-MEL1 cell growth in a cell viability assay.

BB30-HNC = type: functional, cell-based, Homo sapiens; conditions: Homo sapiens, BB30-HNC;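 note: growth inhibition of the cultured cell line, read out by a cell viability assay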
Description: SANGER: Inhibition of human BB30-HNC cell growth in a cell viability assay.

NCI-H1395 = type: functional, cell-based, Homo sapiens; conditions: Homo sapiens, NCI-H1395;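 note: cell viability assay read-out quantifying reduced proliferation of human NCI-H1395 cells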
Description: SANGER: Inhibition of human NCI-H1395 cell growth in a cell viability assay.

TE-5 = type: functional, cell-based, Homo sapiens; conditions: Homo sapiens, TE-5;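 note: inhibition of cell growth, read out by a cell viability assay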
Description: SANGER: Inhibition of human TE-5 cell growth in a cell viability assay.

IST-SL1 = type: functional, cell-based, Homo sapiens; conditions: Homo sapiens, IST-SL1;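 note: growth inhibition of human IST-SL1 cells, read out with a cell viability assay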
Description: SANGER: Inhibition of human IST-SL1 cell growth in a cell viability assay.

MMAC-SF = type: functional, cell-based; conditions: Homo sapiens;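 note: growth inhibition of human MMAC-SF cells, read out with a cell viability assay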
Description: SANGER: Inhibition of human MMAC-SF cell growth in a cell viability assay.

EW-11 = type: functional, cell-based, Homo sapiens; conditions: Homo sapiens, EW-11;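 note: growth inhibition of human EW-11 cells, measured with a cell viability assay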
Description: SANGER: Inhibition of human EW-11 cell growth in a cell viability assay.

ES7 = type: functional, cell-based, Homo sapiens; conditions: Homo sapiens, ES7;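 note: growth inhibition of cultured human ES7 cells, read out as cell viability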
Description: SANGER: Inhibition of human ES7 cell growth in a cell viability assay.

NCI-H1581 = type: functional, cell-based, Homo sapiens; conditions: Homo sapiens, NCI-H1581;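 note: cell growth inhibition read out by a viability assay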
Description: SANGER: Inhibition of human NCI-H1581 cell growth in a cell viability assay.

EM-2 = type: functional, cell-based, Homo sapiens; conditions: Homo sapiens, EM-2;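 note: growth inhibition of EM-2 cells, read out with a cell viability assay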
Description: SANGER: Inhibition of human EM-2 cell growth in a cell viability assay.

MPP-89 = type: functional, cell-based, Homo sapiens; conditions: Homo sapiens, MPP-89;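 note: growth inhibition of human MPP-89 cells, read out with a cell viability assay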
Description: SANGER: Inhibition of human MPP-89 cell growth in a cell viability assay.

LAN-6 = type: functional, cell-based, Homo sapiens; conditions: Homo sapiens, LAN-6;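 note: growth inhibition of LAN-6 cells, determined with a cell viability assay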
Description: SANGER: Inhibition of human LAN-6 cell growth in a cell viability assay.

OCI-AML2 = type: functional, cell-based, Homo sapiens; conditions: Homo sapiens, OCI-AML2;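 note: growth inhibition of OCI-AML2 cells, read out with a cell viability assay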
Description: SANGER: Inhibition of human OCI-AML2 cell growth in a cell viability assay.

A704 = type: functional, cell-based; conditions: Homo sapiens;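 note: growth inhibition of human A704 cells, read out with a cell viability assay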
Description: SANGER: Inhibition of human A704 cell growth in a cell viability assay.

NCI-H1092 = type: functional, cell-based, Homo sapiens; conditions: Homo sapiens, NCI-H1092;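 note: cell growth inhibition measured with a cell viability assay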
Description: SANGER: Inhibition of human NCI-H1092 cell growth in a cell viability assay.

HDLM-2 = type: functional, cell-based, Homo sapiens; conditions: Homo sapiens, HDLM-2;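 note: cell viability assay measuring suppression of HDLM-2 proliferation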
Description: SANGER: Inhibition of human HDLM-2 cell growth in a cell viability assay.

OCUB-M = type: functional, cell-based; conditions: Homo sapiens;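 note: growth inhibition of the cancer cell line, read out through a cell viability assay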
Description: SANGER: Inhibition of human OCUB-M cell growth in a cell viability assay.

SK-UT-1 = type: functional, cell-based, Homo sapiens; conditions: Homo sapiens, SK-UT-1;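 note: growth inhibition of SK-UT-1 cells, measured by a cell viability assay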
Description: SANGER: Inhibition of human SK-UT-1 cell growth in a cell viability assay.

GAK = type: functional, cell-based, Homo sapiens; conditions: Homo sapiens, GAK;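 note: cell growth inhibition read out by a cell viability assay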
Description: SANGER: Inhibition of human GAK cell growth in a cell viability assay.

NCI-H1838 = type: functional, cell-based, Homo sapiens; conditions: Homo sapiens, NCI-H1838;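 note: growth inhibition of NCI-H1838 cells, determined with a cell viability readout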
Description: SANGER: Inhibition of human NCI-H1838 cell growth in a cell viability assay.

NB5 = type: functional, cell-based, Homo sapiens; conditions: Homo sapiens, NB5;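 note: growth inhibition of NB5 cells, read out as cell viability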
Description: SANGER: Inhibition of human NB5 cell growth in a cell viability assay.

MSTO-211H = type: functional, cell-based, Homo sapiens; conditions: Homo sapiens, MSTO-211H
Description: SANGER: Inhibition of human MSTO-211H cell growth in a cell viability assay.

DU-4475 = type: functional, cell-based, Homo sapiens; conditions: Homo sapiens, DU-4475
Description: SANGER: Inhibition of human DU-4475 cell growth in a cell viability assay.

no-11 = type: functional, cell-based, Homo sapiens; conditions: Homo sapiens;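 note: growth inhibition of human NO-11 cells, read out with a cell viability assay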
Description: SANGER: Inhibition of human no-11 cell growth in a cell viability assay.

HEL = type: functional, cell-based, Homo sapiens; conditions: Homo sapiens, HEL;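 note: growth inhibition of HEL cells, read out with a cell viability assay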
Description: SANGER: Inhibition of human HEL cell growth in a cell viability assay.

KY821 = type: functional, cell-based, Homo sapiens; conditions: Homo sapiens, KY821;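 note: growth inhibition of human KY821 cells, read out by a cell viability assay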
Description: SANGER: Inhibition of human KY821 cell growth in a cell viability assay.

LC-2-ad = type: functional, cell-based, Homo sapiens; conditions: Homo sapiens, LC-2-ad;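 note: growth inhibition of human LC-2-ad cells, read out with a cell viability assay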
Description: SANGER: Inhibition of human LC-2-ad cell growth in a cell viability assay.

NCI-H226 = type: functional, cell-based, Homo sapiens; conditions: Homo sapiens, NCI-H226;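 note: cell viability read-out used to gauge growth inhibition of the cells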
Description: SANGER: Inhibition of human NCI-H226 cell growth in a cell viability assay.

HT = type: functional, cell-based, Homo sapiens; conditions: Homo sapiens, HT
Description: SANGER: Inhibition of human HT cell growth in a cell viability assay.

Work on `CC1(C)CCC(c2ccc(Cl)cc2)=C(CN2CCN(c3ccc(C(=O)NS(=O)(=O)c4ccc(N[C@H](CCN5CCOCC5)CSc5ccccc5)c(S(=O)(=O)C(F)(F)F)c4)cc3)CC2)C1` [NAVITOCLAX] yielded an IC50 (DOK) of over 2000 nM, an IC50 (EW-16) of 813 nM and an IC50 (KLE) of over 2000 nM. For the same compound, the IC50 (D-247MG) was 1510 nM, the IC50 (EW-18) was 68.4 nM and the IC50 (SW872) was over 2000 nM. For the same compound, the IC50 (NCI-H1770) was over 2000 nM, the IC50 (A388) was 1690 nM and the IC50 (LS-513) was over 2000 nM. It also gave an IC50 (ACN) of over 2000 nM, an IC50 (U-118-MG) of over 2000 nM and an IC50 (no-10) of over 2000 nM. It also gave an IC50 (NCI-H1623) of over 2000 nM, an IC50 (BV-173) of 23.1 nM and an IC50 (DOHH-2) of 410 nM. It also gave an IC50 (D-502MG) of over 2000 nM, an IC50 (SW982) of over 2000 nM and an IC50 (KGN) of over 2000 nM. For the same compound, the IC50 (QIMR-WIL) was 42.9 nM, the IC50 (NCI-H69) was over 2000 nM and the IC50 (KINGS-1) was over 2000 nM. The IC50 (TE-8) was over 2000 nM, the IC50 (TE-9) was over 2000 nM and the IC50 (IST-MEL1) was over 2000 nM. For the same compound, the IC50 (BB30-HNC) was over 2000 nM, the IC50 (NCI-H1395) was over 2000 nM and the IC50 (TE-5) was over 2000 nM. The IC50 (IST-SL1) was 353 nM, the IC50 (MMAC-SF) was over 2000 nM and the IC50 (EW-11) was 1960 nM. The IC50 (ES7) was 1280 nM, the IC50 (NCI-H1581) was over 2000 nM and the IC50 (EM-2) was 199 nM. The IC50 (MPP-89) was over 2000 nM, the IC50 (LAN-6) was over 2000 nM and the IC50 (OCI-AML2) was over 2000 nM. The IC50 (A704) was 427 nM, the IC50 (NCI-H1092) was 103 nM and the IC50 (HDLM-2) was over 2000 nM. For the same compound, the IC50 (OCUB-M) was over 2000 nM, the IC50 (SK-UT-1) was over 2000 nM and the IC50 (GAK) was over 2000 nM. For the same compound, the IC50 (NCI-H1838) was over 2000 nM, the IC50 (NB5) was over 2000 nM and the IC50 (MSTO-211H) was over 2000 nM. For the same compound, the IC50 (DU-4475) was 654 nM, the IC50 (no-11) was over 2000 nM and the IC50 (HEL) was 1310 nM. The IC50 (KY821) was 29.7 nM, the IC50 (LC-2-ad) was over 2000 nM and the IC50 (NCI-H226) was over 2000 nM. The IC50 (HT) was over 2000 nM.

With `NC(=O)Nc1cc(-c2cccc(F)c2)sc1C(=O)N[C@H]1CCCNC1` [AZD-7762] the IC50 (DOK) was over 2000 nM, the IC50 (EW-16) was 538 nM and the IC50 (KLE) was over 2000 nM. It also gave an IC50 (D-247MG) of over 2000 nM, an IC50 (EW-18) of 1600 nM and an IC50 (SW872) of over 2000 nM. It also gave an IC50 (NCI-H1770) of over 2000 nM, an IC50 (A388) of over 2000 nM and an IC50 (LS-513) of 749 nM. For the same compound, the IC50 (ACN) was 172 nM, the IC50 (U-118-MG) was over 2000 nM and the IC50 (no-10) was over 2000 nM. For the same compound, the IC50 (NCI-H1623) was over 2000 nM, the IC50 (BV-173) was 346 nM and the IC50 (DOHH-2) was 131 nM. It also gave an IC50 (D-502MG) of over 2000 nM, an IC50 (SW982) of 784 nM and an IC50 (KGN) of 1230 nM. The IC50 (QIMR-WIL) was 163 nM, the IC50 (NCI-H69) was over 2000 nM and the IC50 (KINGS-1) was 1420 nM. For the same compound, the IC50 (TE-8) was 1120 nM, the IC50 (TE-9) was 1630 nM and the IC50 (IST-MEL1) was 226 nM. The IC50 (BB30-HNC) was 315 nM, the IC50 (NCI-H1395) was 198 nM and the IC50 (TE-5) was 1420 nM. For the same compound, the IC50 (IST-SL1) was 628 nM, the IC50 (MMAC-SF) was over 2000 nM and the IC50 (EW-11) was 563 nM. The IC50 (ES7) was 160 nM, the IC50 (NCI-H1581) was over 2000 nM and the IC50 (EM-2) was 99 nM. It also gave an IC50 (MPP-89) of 245 nM, an IC50 (LAN-6) of 1080 nM and an IC50 (OCI-AML2) of 1270 nM. For the same compound, the IC50 (A704) was 539 nM, the IC50 (NCI-H1092) was over 2000 nM and the IC50 (HDLM-2) was 813 nM. It also gave an IC50 (OCUB-M) of over 2000 nM, an IC50 (SK-UT-1) of 186 nM and an IC50 (GAK) of 1050 nM. It also gave an IC50 (NCI-H1838) of over 2000 nM, an IC50 (NB5) of 797 nM and an IC50 (MSTO-211H) of 299 nM. It also gave an IC50 (DU-4475) of 349 nM, an IC50 (no-11) of 1490 nM and an IC50 (HEL) of 225 nM. The IC50 (KY821) was 214 nM, the IC50 (LC-2-ad) was 565 nM and the IC50 (NCI-H226) was over 2000 nM. For the same compound, the IC50 (HT) was 1870 nM.
